Among the data in ChEMBL document CHEMBL1201862, “PubChem BioAssay data set” (2004) are IC50, AC50 and EC50 values, retold here.

Activity calls are given as the source filed them.

Assay [1] can be described thus: T. cruzi intracellular amastigote growth inhibition, dose response, imaging, CA-I/72 strain, bovine embryo skeletal muscle, dry powder (AID 651885). Type of assay: functional, cell-based.
Assay [2] can be described thus: T. cruzi growth inhibition in host cells, dose response, cell-based, plate reader, dry powder, set 2 (AID 652275). Type of assay: functional.
A short description of assay [3]: growth inhibition of intracellular T. cruzi, dose response, cell-based, plate reader, dry powder samples (AID 651845). The format is functional.
A short description of assay [4]: CTGF mRNA reduction under YAP1 overexpression, dose response, mechanism study for YAP1 pathway inhibitor project, DLD1 cells, RT-qPCR, cherry-pick (AID 1053127). Type of assay: functional, cell-based. The settings on record: DLD-1. For orientation: In qPCR the cycle at which signal appears reflects the starting amount.
The nature of assay [5]: YAP1 pathway inhibition via CTGF transcript levels, dose response, cell-based, DLD1 colon cancer, RT-qPCR, cherry-pick (AID 1053122). Type of assay: functional. The following applies: Cancer cell lines.
Assay [6] is described as follows: Mtb BioA inhibitors by displacement, dose response, biochemical, coupled fluorescence displacement, 20-point, dry powder (AID 743357). Type of assay: functional.
Assay [7] can be described thus: A2780 ovarian cancer cell cytotoxicity, dose response, cytotoxicity control, plate reader, dry powder samples (AID 743046). The format is functional, cell-based.
The nature of assay [8]: NIH:OVCAR-3 ovarian cancer cell cytotoxicity, dose response, PAX8 inhibitor project, plate reader, dry powder samples (AID 743044). The format is functional, cell-based.
Assay [9] is described as follows: cytotoxicity in OVCAR8 ovarian cancer cells, dose response, PAX8 project, cell-based, plate reader, dry powder samples (AID 743197). Type of assay: functional. The settings on record: OVCAR-8.
For another assay, the target named is Paired box protein Pax-8 (Homo sapiens, UniProt Q06710). As to the kind of experiment: inhibitors of PAX8-driven TPO luciferase reporter, dose response, RMG-I cells, cherry-pick (AID 687027).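 Also: luciferase reporter driven by Pax8 target thyroperoxidase promoter measured by SteadyGlo luminescence.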 Type of assay: functional, cell-based.
Paired box protein Pax-8, sequence (Q06710 whole entry): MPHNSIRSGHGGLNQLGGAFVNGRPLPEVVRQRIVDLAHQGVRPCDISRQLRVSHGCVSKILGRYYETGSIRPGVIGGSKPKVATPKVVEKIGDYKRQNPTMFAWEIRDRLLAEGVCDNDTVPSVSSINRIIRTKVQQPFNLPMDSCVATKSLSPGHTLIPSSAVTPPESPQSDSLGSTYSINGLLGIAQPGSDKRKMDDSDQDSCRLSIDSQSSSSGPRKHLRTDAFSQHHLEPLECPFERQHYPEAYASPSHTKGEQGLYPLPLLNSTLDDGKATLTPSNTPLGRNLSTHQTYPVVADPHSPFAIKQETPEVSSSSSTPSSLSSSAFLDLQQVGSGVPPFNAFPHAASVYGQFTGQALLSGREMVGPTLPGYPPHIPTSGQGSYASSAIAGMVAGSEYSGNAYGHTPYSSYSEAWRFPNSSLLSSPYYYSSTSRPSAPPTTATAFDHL
The nature of assay [10]: inhibitors of SNCA 5'UTR-driven translation, confirmation, luminescence, H4 neuroglioblastoma cells, dose confirmation (AID 2454).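 Also: H4 neuroglioblastoma cells carrying an alpha-synuclein 5'UTR luciferase reporter; potency for inhibition of the luciferase signal.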 The format is functional, cell-based.
Assay [11] is described as follows: inhibitors of firefly luciferase expression or activity, dose response, H4 neuroglioma cells, luminescence (AID 1990). Type of assay: functional, cell-based.
The test system of assay [12] is H4. As to the kind of experiment: Inhibitors of Prion Protein 5' UTR mRNA Measured in Cell-Based System Using Plate Reader - 2078-01_Inhibitor_Dose_DryPowder_Activity. [Related pubchem assays (depositor defined):AID488894]. Type of assay: functional. The following applies: Homo sapiens.
Assay [13] can be described thus: cytotoxicity in HEK-293T cells, dose response, cytotoxicity control for BCR NF-kB inhibitor project, luminescence, B-cell screen hits (AID 489021).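 Also: HEK-293T cells carrying an NF-kB luciferase reporter; cells exposed to compound for about 14 hours before viability readout.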 The format is functional, cell-based.
A short description of assay [14]: cytotoxicity dependent on PAX8, dose response, cell-based, plate reader, dry powder (AID 743049). Type of assay: functional.
The nature of assay [15]: Luminescence-based counterscreen assay for KLF5 inhibitors: dose response cell-based high throughput screening assay to identify cytotoxic compounds using the IEC-6 intestinal epithelial cell line. [Related pubchem assays: 1700 (Primary screen.), 1834 (Confirmation screen.), 1858 (Summary AID.), 1905 (Counterscreen.)]. Type of assay: functional. Background: The purpose of a counterscreen is to sort out artefacts and off-target activity.

A short description of assay [16]: cytotoxicity in COV362 ovarian cancer cells, dose response, cytotoxicity control for PAX8 inhibitor project, cell-based, plate reader, dry powder, SA12 (AID 743144). Type of assay: functional.
Assay [17] can be described thus: reduction of Shn3 3'UTR firefly luciferase signal, dose response, Schnurri-3 inhibitor project, cell-based, Clone20 osteoblasts, cherry-pick, set 2 (AID 720490).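 Also: actives lower the luminescence signal as inhibitors.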 Type of assay: functional.
Assay [18] in a line: Shn3 3'UTR reporter inhibitors, dose response, cell-based, Clone20 osteoblasts, firefly luciferase, cherry-picked (AID 624132).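 Also: firefly luciferase luminescence from reporter carrying the Shn3 3'UTR in osteoblasts.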 The format is functional.
The nature of assay [19]: Luminescence Cell-Based Dose Response HTS to Identify Inhibitors of 5'UTR Stem-Loop Driven Prion Protein mRNA Translation in H4 Neuroglioblastoma Cells. [Related pubchem assays: 1827 (Project Summary), 1813 (Primary HTS)]. The format is functional.
The nature of another assay: cells. The format is functional, cell-based.
A short description of assay [20]: PAX2 cell-based inhibition, dose response, selectivity assay for PAX8 inhibitor project, plate reader, dry powder samples (AID 743048).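 Also: HEK293 cells carrying a WT1 promoter luciferase reporter driven by expressed Pax2; potency is for inhibition of Pax2 driven reporter signal.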 Type of assay: functional.
Assay [21] in a line: PAX5 activity inhibitors, dose response, selectivity assay for PAX8 inhibitor project, cell-based, plate reader, dry powder samples (AID 743047).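 Also: HEK293 cells carrying a Pax5 driven CD19 promoter luciferase reporter; potency of inhibitors that lower reporter luminescence.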 The format is functional.
Assay [22] is described as follows: inhibitors of SNCA 5'UTR-driven reporter translation, confirmation, H4 neuroglioma cells, luminescence (AID 1988). Type of assay: functional, cell-based.
A short description of assay [23]: luciferase reporter signal reduction – luminescence, H4-C neuroglioblastoma cells, dose response (AID 2458).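 Also: H4 neuroglioblastoma cells stably carrying a luciferase reporter gene fusion.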 The format is functional, cell-based. (A reporter such as luciferase makes a cellular process visible.)
The subject of assay [24] is H4. Nature of the assay: inhibitors of control reporter signal in H4 cells – cell-based, plate reader, dry powder samples, counter-screen for prion reporter project, dose response (AID 540255). The format is functional. The settings on record: Homo sapiens.
The test system of assay [25] is Streptococcus sp. 'group A'. As to the kind of experiment: growth inhibition of control SK(-) GAS strain, dose response, counter-screen for streptokinase expression inhibitor project, luminescence, kanamycin, BacTiterGlo, confirmation (AID 1900). The format is functional, organism-based.
The target in assay [26] is Disintegrin and metalloproteinase domain-containing protein 17 (Homo sapiens, UniProt P78536). Nature of the assay: ADAM17 protease inhibitors, dose response, counter-screen for ADAM10 exosite inhibitor project, biochemical, quenched FRET substrate (AID 743253).
Disintegrin and metalloproteinase domain-containing protein 17, sequence (P78536 whole entry, the tested form may be a part): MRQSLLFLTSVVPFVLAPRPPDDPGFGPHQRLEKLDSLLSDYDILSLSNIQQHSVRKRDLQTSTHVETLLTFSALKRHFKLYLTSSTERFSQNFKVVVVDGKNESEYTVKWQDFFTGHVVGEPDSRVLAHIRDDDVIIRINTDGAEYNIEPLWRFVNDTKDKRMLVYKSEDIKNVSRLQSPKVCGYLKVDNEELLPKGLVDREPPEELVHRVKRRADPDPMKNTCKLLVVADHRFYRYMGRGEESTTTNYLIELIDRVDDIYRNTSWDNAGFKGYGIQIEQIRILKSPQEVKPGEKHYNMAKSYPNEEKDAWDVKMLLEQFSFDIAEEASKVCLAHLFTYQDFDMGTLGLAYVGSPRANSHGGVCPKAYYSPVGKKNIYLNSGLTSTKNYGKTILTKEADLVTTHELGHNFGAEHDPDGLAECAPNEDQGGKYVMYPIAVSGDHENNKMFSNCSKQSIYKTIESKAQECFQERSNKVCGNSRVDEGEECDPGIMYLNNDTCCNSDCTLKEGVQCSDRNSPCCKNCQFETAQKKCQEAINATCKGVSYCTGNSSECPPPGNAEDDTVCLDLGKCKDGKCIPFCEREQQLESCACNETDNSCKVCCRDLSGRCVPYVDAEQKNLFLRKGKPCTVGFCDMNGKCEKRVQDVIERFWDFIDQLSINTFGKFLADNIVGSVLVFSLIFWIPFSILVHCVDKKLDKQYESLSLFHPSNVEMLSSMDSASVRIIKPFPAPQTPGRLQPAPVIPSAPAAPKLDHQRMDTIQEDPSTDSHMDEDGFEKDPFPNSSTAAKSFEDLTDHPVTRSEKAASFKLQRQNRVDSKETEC
The next assay relates to Streptococcus. Nature of the assay: Group A Streptococcus viability loss, dose response, counter-screen for streptokinase expression inhibitor project, luminescence, BacTiterGlo (AID 1915).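 Also: potency for reduction of bacterial viability or growth.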 The format is functional, organism-based.
The next assay has as its target T1, Streptokinase A (Streptococcus pyogenes serotype M1, UniProt P10520).
T1 sequence (P10520 whole entry): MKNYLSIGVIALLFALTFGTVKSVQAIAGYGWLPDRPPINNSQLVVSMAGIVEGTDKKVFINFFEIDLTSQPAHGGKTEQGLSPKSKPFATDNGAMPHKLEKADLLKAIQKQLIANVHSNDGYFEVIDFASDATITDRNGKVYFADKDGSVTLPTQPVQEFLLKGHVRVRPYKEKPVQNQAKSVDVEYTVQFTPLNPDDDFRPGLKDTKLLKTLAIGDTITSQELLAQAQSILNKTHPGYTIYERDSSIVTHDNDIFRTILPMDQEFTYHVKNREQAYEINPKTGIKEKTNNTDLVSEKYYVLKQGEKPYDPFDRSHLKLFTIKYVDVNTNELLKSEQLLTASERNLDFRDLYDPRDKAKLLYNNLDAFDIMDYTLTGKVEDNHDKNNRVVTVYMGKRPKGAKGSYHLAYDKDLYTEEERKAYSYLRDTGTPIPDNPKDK
Nature of the assay: S. pyogenes streptokinase expression inhibitors, potency, dose response, plasminogen activation absorbance, OD405 (AID 1914).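 Also: secreted streptokinase activity via plasminogen activation per viability signal from cell pellet.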 Type of assay: functional, Streptococcus pyogenes M1 GAS.

The nature of assay [27]: inhibitors of fibronectin matrix deposition, dose response, AH1F cells, Alexa488-FN fluorescence, cherry-picks (AID 1035475). Type of assay: functional, cell-based.

Take `C[C@@H]1CN(C)C(=O)c2cccc(NC(=O)c3ccncc3)c2O[C@H]1CN(C)Cc1ccc(Oc2ccccc2)cc1`: the IC50 (commonly the concentration that inhibits the measured activity by half) in [1] is 10 µM (inconclusive). Also, the figures for the AC50 in assay [2] and in [3] were 0.00506 µM (active) and 0.0381 µM (active), respectively.

In the case of `COc1cccc(-c2ccc([C@H]3[C@H]4CN(C(=O)Cc5ccncc5)CCCCN4[C@H]3CO)cc2)c1`, the AC50 (usually the concentration giving half of the maximal activity seen) was 9.34 µM (active) in [4] and 2.79 µM (active) in [5].

Regarding `CN(C)C(=O)c1ccc(N2CCN(C(=O)c3ccc4c(c3)OCO4)CC2)cc1`, in [6], the AC50 is 14 µM (active).

Regarding `Cc1cccc(S(=O)(=O)N2C[C@@H](O)COC[C@@H]3O[C@@H](CC(=O)Nc4ccc(-c5ccccc5)cc4)CC[C@H]32)c1`, the AC50 in [7] was 23.2 µM (active); in assay [8], 43.4 µM (active); in [9], 53.1 µM (active); at Paired box protein Pax-8, 10.7 µM (active).

As for `O=C(CN1C(=O)c2ccccc2S1(=O)=O)c1ccc(Cl)cc1Cl`, the EC50 (usually the concentration giving half of the maximal effect) in assay [10] is 0.774 µM (active); in assay [11], 0.31 µM (active); in assay [19] it was < 0.1 µM (active); in the assay “cells” it was 0.794 µM (active); in [22] it was < 0.1 µM (active); in [23], 0.595 µM (active). In addition, the AC50 with H4 [12] was 0.168 µM (active); in [14], 88.1 µM (active); at Paired box protein Pax-8 it was 2.93 µM (active); in assay [16] it was 93.5 µM (active); in [17], 5.38 µM (active); in assay [18] it was 3.53 µM (active). Also, the AC50 in assay [20] was 1.18 µM (active); in [21] it was 1.37 µM (active); in the assay with H4 [24], 0.456 µM (active). In addition, the IC50 in assay [13] was > 80 µM (inactive); in [15] it was > 39.8 µM (not active).

For the molecule `CCCN(CC(=O)Nc1cc(Cl)cc(Cl)c1)CC(=O)Nc1ccc(F)c(F)c1F`, the 50% effective concentration (EC50) is 1.77 µM (active) in [25], 10.4 µM (active) in the assay on Streptococcus and 1.48 µM (active) at Streptokinase A. The IC50 in assay [26] is > 69.5 µM (inactive).

As for `C[C@@H]1CN([C@H](C)CO)C(=O)c2cccc(NC(=O)Nc3ccc(C(F)(F)F)cc3)c2O[C@H]1CN(C)C(=O)Nc1cccc2ccccc12`, the AC50 in assay [27] was 57.7 µM (active).
